Measured values from patent publication US6528656B1, “Linear or cyclic aminophosphonates as pH markers in phosphorus 31 NMR spectroscopy” (Centre National de la Recherche Scientifique (CNRS), priority 1998, dated 2003).
Like-named read-outs stand apart in the source and are kept apart here.

Experiments:
tumour cell line = conditions: cited from earlier work
[1] = test system: myocardial or liver cells; experiment: toxicity, cell penetration and 31P NMR pH measurement in myocardial or liver cells; type: cell-based
From the text: The compounds of formulae (II.1) and (II.2) are on the whole particuarly non-toxic and penetrate into myocardial or liver cells (in sufficient amount to be observed but in a sufficiently small amount to remain non-toxic), thus allowing a measurement of the pH values of intracellular and extracellular media.

physchem [2] = type: physicochemical; conditions: 37° C., 5 mM solution in phosphate buffer, 400 MHz NMR, from titration curve
Protocol: The results obtained allowed titration curves to be plotted.
Each measurement was taken at 37° C. using a 5 mM solution of the test compound in a phosphate buffer on a 400 MHz NMR spectroscopy machine.
The variation in the phosphorus-31 chemical shift was studied as a function of the pH: the measurements were taken at 22° C., or 37° C. respectively, on a 400 MHz NMR machine using 5 mM solutions of the test compound in a phosphate buffer.

physchem [3] = experiment: physchem

For O=CC[C@@H](O)[C@H](O)[C@H](O)COP(=O)(O)O [2-deoxyglucose 6-phosphate, 2-Deoxyglucose 6-phosphate], the metabolism (tumour cell line) is given as “not metabolized” and the toxicity (tumour cell line) is given as “toxic to the cell”.

For CCOP(=O)(OCC)C1(C)CCCN1 (centres unmarked) [Compound 1, 2-methyl-2-diethoxyphosphorylpyrrolidine], the “variations in the phosphorus chemical shift as a function of intracellular acidosis versus intracellular Pi” value ([1]; in the course of ischaemia, cytosolic medium) was “fully correlated” and the “pH measurements in liver compartments (extracellular, cytosolic, intravesicular medium)” value ([1]; liver, very acidic (pH 5) vesicles) was “allows three measurements at the same time”.

CCOP(=O)(OCC)C1(P(=O)(OCC)OCC)CCCN1 [Compound 2, 2,2-bis(diethoxyphosphoryl) pyrrolidine] gave a pKa (physchem [2]) of 3.47 and a pKa (physchem [3]) of 3.5.

CC(C)OP(=O)(OC(C)C)C1(P(=O)(OC(C)C)OC(C)C)CCCN1 [Compound 3, 2,2-bis(diisopropoxyphosphoryl) pyrrolidine] showed a pKa (physchem [2]) of 3.9.

CCOP(=O)(OCC)C1(C)CCC(C)(P(=O)(OCC)OCC)N1 (centres unmarked) [Compound 4, 2,5-bis(diethoxyphosphoryl)-2,5-dimethylpyrrolidine] showed a pKa (physchem [2]) of 2.45.
